Entries after “also recorded” stand apart in the source; their conditions may differ.
Key:
Assay type in all cases: cell-based, mouse
[1] = tested on: DC2.4 cells; test: Polyubiquitination of antigenic protein taken up by DC2.4 cells (SDS-PAGE, Western blot with anti-polyubiquitin antibody); details: DC2.4 cells incubated with GST-OVA in the presence or absence of Hsp90
Experimental: There are reports that when the KDEL sequence (Lys-Asp-Glu-Leu) (SEQ ID NO: 3), an endoplasmic reticulum localization sequence, is added to the carboxyl terminus of a protein localized in the ER lumen, the protein is repeatedly transported between the ER and Golgi apparatus, and ERAD of that protein is promoted. Therefore, DC2.4 cells were made to take up OVA with KDEL (SEQ ID NO: 3) added to its C-terminus, and OVA that was polyubiquitinated after uptake was observed by SDS-PAGE and Western blotting. OVA to which a KDEL sequence (SEQ ID NO: 3) was added was constructed and expressed as follows: using a plasmid comprising a DNA sequence encoding OVA as a template, PCR was performed using oligo-1 (SEQ ID NO: 10) and oligo-2 (SEQ ID NO: 11) as primers. The amplified PCR product of approximately 1100 bp was introduced into a pCR-Blunt vector (Invitrogen) to obtain vector-1. Oligo-3 (SEQ ID NO: 12) and oligo-4 (SEQ ID NO: 13) were annealed, and the obtained gene fragment of approximately 100 bp was introduced into the pCR-Blunt vector to obtain vector-2. Vector-2 was digested with SpeI, the obtained gene fragment of approximately 130 bp was introduced into vector-1 that had been digested with NheI to obtain vector-3. An approximately 1250-bp gene fragment (OVA-KDEL) obtained when vector-3 was digested with BamHI/SpeI was introduced into a vector for gene expression, and then expressed. […]

[2] = tested on: DC2.4 cells; test: MHC class I cross-presentation by DC2.4 cells to OT-I CD8+ T cells (IL-2 ELISA)
Excerpt: Whether knock-down of cellular components involved in ERAD decreases the cross-presentation of exogenous OVA antigen was examined using a system for evaluating the level of antigen presentation, which uses naive CD8^+ T cells from OT-I mice and DC2.4 cells. The DC2.4 cells used as a model of dendritic cells are of the H-2Kb mouse MHC class I haplotype. OT-I (H-2Kb) mice are transgenic mice expressing a T cell receptor (TCRα and β) that recognizes an antigenic peptide (SIINFEKL) (SEQ ID NO: 15) derived from OVA presented on the H-2Kb molecules. The CD8^+ cells of OT-I mice are activated when they recognize OVA peptides presented by BMDCs derived from H-2Kb mice or by DC2.4 cells. When OVA or bOVA is incubated with and affixed onto DC2.4 cells and the cells are further incubated with naive CD8^+ T cells of OT-I mice, the amount of IL-2 produced by OT-I CD8^+ T cells serves as an index of T-cell stimulation as a result of OVA antigen presented by DC2.4 cells.
Parental or knocked-down DC2.4 cells were pre-incubated in a culture medium supplemented with 50 μg mL^−1 polymyxin B for 30 minutes in the presence or absence of lactacystin or MG-132, and incubated with OVA (250 μg mL^−1) or SIINFEKL peptides (10 ng mL^−1) for six hours. The cells were washed, fixed with 1% paraformaldehyde, and aliquoted into microtiter plates (5×10^4 per well). 5×10^4 CD8^+ T cells purified from splenocytes of OT-1 mice using magnetic beads were added to each well and after a 24-hour incubation, the IL-2 secretion was measured by ELISA (BD Biosciences) in triplicate.
DC2.4 cells were incubated with OVA (0, 50, or 250 μg/mL) in RPMI1640/10c% FCS for six hours at 37° C., in the presence or absence of pig-derived HSP90 (10 μg/mL). After washing away the antigen and HSP, OT-I CD8^+ T cells were added, cells were cultured overnight at 37° C., and the amount of IL-2 comprised in the supernatant was measured by the ELISA method.
The timing of the addition of HSP90 (10 μg/mL) and OVA (250 μg/mL) to DC2.4 cells was varied, and the effect on class I antigen presentation was observed. (i) HSP90 was added first, DC2.4 cells were washed, and then OVA was added. (ii) HSP90 and OVA were added simultaneously to DC2.4 cells. (iii) OVA was added first, and after washing DC2.4 cells, HSP90 was added. The results obtained under these three conditions were compared. As a control for all these conditions, an experiment in which only OVA, but not HSP90, was added was also carried out.
Under condition (i), HSP90 was added to DC2.4 cells, the cells were cultured for 30 minutes and then washed to remove HSP90. Next, OVA was added and the cells were cultured for three hours. Thereafter, OVA was removed by washing, and cells were cultured in just the culture medium for three hours. DC2.4 cells activated with OVA by the above procedure were plated in a 96-well plate, OT-I mouse-derived CD8^+ T cells were added to this, and after culturing overnight, the amount of IL-2 released into the supernatant was measured by ELISA.
Under condition (ii), OVA and HSP90 were added simultaneously to DC2.4 cells, cells were cultured for three hours, then washed, and cultured in just the culture medium for three hours. Thereafter, the procedures to investigate the activation of OT-I mouse-derived CD8^+ T cells was carried out similarly to in (i) above.
Under condition (iii), OVA was first added to DC2.4 cells, cells were cultured for three hours, and then washed to remove OVA. Next, HSP90 was added, and the cells were cultured for another three hours. The procedures that follow were carried out similarly to that of (i) and (ii). Meanwhile, timings were set such that the incubation times during the stage in which cells are in contact with OVA and the stage at which OVA has been taken up were the same under conditions (i) to (iii).

[3] = tested on: bone marrow-derived dendritic cells (BMDCs); test: MHC class II antigen presentation by BMDCs to OT-II CD4+ T cells (IL-2 ELISA); details: HSP90 10 μg/mL added at the same time as OVA (0, 50 or 250 μg/mL)
Experimental: Mouse bone marrow-derived dendritic cells (BMDCs) were prepared as follows: cells were taken out from mouse bone marrow and cultured for five days in RPMI medium containing GM-CSF and 5% FCS, during which the medium was partially exchange. This culturing method leads to growth of macrophages, dendritic cells, and such; therefore, dendritic cells alone were collected using CD11c magnetic beads, and these cells were used as bone marrow-derived dendritic cells (BMDCs).
The bone marrow-derived dendritic cells (BMDCs) prepared as above or the mouse dendritic cell line DC2.4 cells were plated in a 96-well plate at 5×10^4 cells per well. Next, in the presence of 50 μg/mL of polynyxin B, which is an endotoxin inhibitor, OVA (0, 50, or 250 μg/mL)and HSP90 (0 or 10 μg/mL) were added, the total fluid volume was adjusted to 200 μL, and this was cultured overnight at 37° C. Since endotoxin is known to activate DCs, polymyxin B was added to eliminate the effects of its contamination of reagents, equipment, and such. After culturing, the aforementioned cells in the wells were washed twice to remove the remaining OVA and HSP90 that were not taken up by the cells. […] The wells were centrifuged, the supernatant was collected, and the amount of IL-2 in the supernatant was measured by ELISA.

[4] = tested on: BMDCs; test: MHC class I antigen presentation by BMDCs to OT-I CD8+ cells; details: BMDCs incubated with OVA in the presence or absence of HSP90
[5] = tested on: DC2.4 cells; test: Uptake of antigenic protein into DC2.4 cells
Experimental: Next, DC2.4 cells were incubated for a set amount of time with OVA in the presence or absence of lactacystin (LC), and OVA taken up into the cells was measured. OVA taken up into cells in the presence or absence of Hsp90 was measured similarly.

## HSP90: pig-derived HSP90, molecular chaperone (heat shock protein) of about 90 kDa; porcine sequence SEQ ID NO: 1
[1]
  effect on polyubiquitination of GST-OVA taken up: the increase in polyubiquitination in the presence of HSP90 is very pronounced
[1]; listed as Hsp90
  effect on polyubiquitination of GST-OVA taken up: more strongly polyubiquitinated
[2]; DC2.4 cells, OVA 0, 50 or 250 μg/mL, six hours, pig-derived HSP90 10 μg/mL versus OVA alone
  effect on OVA antigen presentation to OT-I CD8+ T cells (IL-2): a stronger antigen presentation was observed; also recorded: increase antigen presentation
[2]; DC2.4 cells, Hsp90 10 μg/mL and 50 μg/mL
  Hsp90 concentration dependence of antigen presentation ability: increased in an Hsp90 concentration-dependent manner; also recorded: antigen-presenting ability increases in a manner dependent on Hsp90 concentration
[2]; condition (i): HSP90 added first, cells washed, then OVA
  effect on IL-2 production versus OVA-only control: cannot be observed unless it is added simultaneously
[2]; condition (ii): HSP90 10 μg/mL and OVA 250 μg/mL added simultaneously to DC2.4 cells
  effect on IL-2 production versus OVA-only control: increase in the amount of IL-2 production
[2]; condition (iii): OVA added first, cells washed, then HSP90
  effect on IL-2 production versus OVA-only control: not to yield any effect
[3]
  effect on IL-2 production by OT-II CD4+ T cells (MHC class II presentation): not enhanced
[4]
  effect on OVA antigen presentation to OT-I CD8+ cells: increase antigen presentation
[5]; DC2.4 cells incubated with OVA in the presence or absence of Hsp90 and lactacystin
  effect on OVA taken up into cells: take up OVA into cells more efficiently; also recorded: uptake of OVA increased
[5]; FIG. 10 lane 4 versus lane 3, presence or absence of HSP90
  effect on amount of GST-OVA taken up: the increase in the amount taken up in the presence of HSP90 is not great

Source: patent US20080194020A1, “Methods For Producing Dendritic Cells That Have Acquired Ctl-Inducing Ability” (Medical and Biological Laboratories Co., Ltd., priority 2004, published 2008)
